Measured values: US11279703B2, “Fused pyrimidine compounds as BRD4 and JAK2 dual inhibitors and methods for use thereof” (APTOSE BIOSCIENCES INC., priority 2016, dated 2022)

Experiments:
BRD4-BD1 = BRD4-BD1 (Homo sapiens (Human), UniProt O60885); assay: AlphaLisa bromodomain binding assay, BRD4-BD1; settings: Table 6; read-out: BRD4(1) IC50
Excerpt: An AlphaLisa assay was used to observe bromodomain binding and measure IC50s for the compounds disclosed herein. An AlphaLisa assay is a bead-based assay used to detect interactions between bromodomains and polyacetylated histone peptides. Donor and acceptor beads bound to target and ligand are brought into proximity by this protein-protein interaction.
Equipment Required • 1. […] Plate centrifuge • 3. Plate shaker • 4. […] Single channel and multi-channel pipettes • 6. Microplate reader (Pherastar)
(§1) Stock and Final Assay Concentrations (FAC) • 1. All reference and test compounds are made at a concentration of 10 mM in DMSO. Compounds are serially diluted in DMSO and a FAC starting from 10 μM to 10 point 3 fold serial dilutions is arrived. FAC of DMSO is 1%. • 2. Enzyme stock and FAC
Biotinylated substrate (Acetylated histone H4, biotinylated substrate—cat no. AS64989-025, Anaspec) stock and FAC
• 4. Acceptor and donor beads stock and FAC
Buffers • For the enzyme and substrate dilution following buffer is used (for 50 ml) • HEPES: 50 mM 2.5 ml • NaCl: 25 mM 1.25 ml • DTT: 10 mM 0.05 ml • BSA: 0.1% 0.05 g • MilliQ water: 45.7 ml • For dilution of acceptor and donor beads AlphaLISA 5× epigenetics Buffer Perkin Elmer (Cat: AL008C) is used at 1× concentration.
Procedure • 1. […] Tap the plate gently • 3. […] Cover with plate sealer • 5. […] Incubate the plate at room temperature for 10 minutes • 7. Add 10 μl of the substrate • 8. Cover with plate sealer • 9. […] Cover with plate sealer • 14. […] Cover with plate sealer • 18.
(§2) The percent inhibition is calculated in the excel analysis template and the IC50 values are subsequently determined using a sigmoidal dose-response curve (variable slope) using GraphPad Prism® 5 software.

JAK2 = JAK2 (Homo sapiens (Human), UniProt O60674); assay: HTRF kinase assay, JAK2; format: biochemical; settings: Table 6
Chain of JAK2 (O60674 whole entry): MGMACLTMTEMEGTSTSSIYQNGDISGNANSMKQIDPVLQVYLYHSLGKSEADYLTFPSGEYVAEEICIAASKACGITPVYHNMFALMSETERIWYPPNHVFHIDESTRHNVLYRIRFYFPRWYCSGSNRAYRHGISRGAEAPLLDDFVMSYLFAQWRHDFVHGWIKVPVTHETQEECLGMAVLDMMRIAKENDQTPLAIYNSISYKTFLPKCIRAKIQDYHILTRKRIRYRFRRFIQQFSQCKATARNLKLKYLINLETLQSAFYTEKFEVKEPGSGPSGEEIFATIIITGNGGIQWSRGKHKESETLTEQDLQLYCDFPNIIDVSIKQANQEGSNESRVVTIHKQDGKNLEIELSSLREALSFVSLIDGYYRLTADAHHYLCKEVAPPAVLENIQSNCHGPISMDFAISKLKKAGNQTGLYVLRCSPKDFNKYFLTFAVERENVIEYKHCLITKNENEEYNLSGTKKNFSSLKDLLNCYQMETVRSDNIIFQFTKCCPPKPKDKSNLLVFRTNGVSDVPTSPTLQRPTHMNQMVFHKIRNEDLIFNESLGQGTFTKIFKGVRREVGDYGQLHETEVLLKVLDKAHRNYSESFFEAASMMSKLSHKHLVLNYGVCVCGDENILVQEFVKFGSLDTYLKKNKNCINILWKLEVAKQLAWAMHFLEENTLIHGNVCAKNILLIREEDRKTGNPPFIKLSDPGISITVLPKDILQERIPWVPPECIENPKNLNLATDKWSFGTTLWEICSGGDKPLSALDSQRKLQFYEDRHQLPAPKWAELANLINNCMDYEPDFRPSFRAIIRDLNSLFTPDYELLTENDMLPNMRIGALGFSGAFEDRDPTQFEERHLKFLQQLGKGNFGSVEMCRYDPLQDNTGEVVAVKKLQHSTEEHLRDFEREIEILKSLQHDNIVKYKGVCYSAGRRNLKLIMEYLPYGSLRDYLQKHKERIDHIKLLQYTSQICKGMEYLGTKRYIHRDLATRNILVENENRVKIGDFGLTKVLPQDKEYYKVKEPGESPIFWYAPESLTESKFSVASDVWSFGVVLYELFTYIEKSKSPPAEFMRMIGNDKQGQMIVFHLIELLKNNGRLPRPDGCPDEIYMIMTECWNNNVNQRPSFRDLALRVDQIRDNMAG
Excerpt: A kinase assay with HTRF was used to observe JAK activity and calculate the IC50s of compounds disclosed herein. HTRF is an enzymatic assay used to determine the amount of phosphorylated peptide. FRET (Fluorescence Resonance Energy Transfer) is based on the transfer of energy between two fluorophores—a donor and an acceptor—when in close proximity. Molecular interactions between biomolecules can be assessed by coupling each partner with a fluorescent label and by detecting the level of energy transfer. The amount of phopshorylated peptide can be detected using a combination of a Eu 3+Cryptate labeled anti-phospho residue antibody, SA-XL665 and a biotinylated substrate. The signal is proportional to the concentration of phospho-residues.
Equipment Required • 1. […] Plate centrifuge • 3. Plate shaker • 4. […] Single channel and multi-channel pipettes • 6. Microplate reader (Pherastar)]
as §1, with “arrived. For Ruxolitinib the starting FAC is 1 μM.” for “arrived.”
• JAK-1: Invtirogen Cat: PR8767C • JAK-2: Invtirogen Cat: PR7820B • JAK-3: Invtirogen Cat: PR7507B • 3. Substrate (synthetic peptide-Biotinylated-N-terminal tag-[…] from Biopeptide) stock and FAC
• Adenosine 5′-triphosphate disodium salt hydrate: Sigma Cat: A26209 • 5. […] Buffers • Base buffer (for 50 ml)
• HTRF buffer: • 50 mM Tris-HCl, pH—7.5 • 100 mM NaCl • 0.1% BSA • 0.05% Tween20 • 0.5 mM EDTA
To a 384 well black-plate: • 1. Add 17 μL of the buffer to each well of the 384-well black plate • 2. […] Add 5 μl of the enzyme to each well of the plate • 4. Add 10 μl of the substrate and ATP mix to all the wells • 5. Cover with plate sealer • 6. […] Incubate at room temperature for 1 hour on shaker • 8. […] Add 37.5 μL of the HTRF mix to these wells. • 9. Incubate the plate at room temperature on shaker for 45 minutes. • 10.
as §2

Compound	IC50 (BRD4-BD1)	IC50 (JAK2)
O=S(=O)(Nc1cccc(-n2ccc3cnc(Nc4ccc(C5CCNCC5)cc4)nc32)c1)C1CC1	3.21 µM	0.071 µM
Cc1cnc(Nc2ccc(N3CCN(C)CC3)cc2)nc1Nc1cccc(NS(=O)(=O)C(C)(C)C)c1 [drawing 353]	0.278 µM	0.0066 µM
CNC1CCN(C(=O)c2ccc(Nc3ncc4scc(-c5cccc(NS(=O)(=O)C(C)(C)C)c5)c4n3)cc2F)CC1	0.298 µM	0.012 µM
CC1(C)CNCCC1Nc1cc(Nc2cccc(NS(=O)(=O)C(C)(C)C)c2)c2ccsc2c1 (stereo not drawn)	2.83 µM	10 µM
CCC1(S(=O)(=O)Nc2cc(-n3ccc4cnc(Nc5ccc(N6CCN(C)CC6)c(F)c5)nc43)ccc2F)CC1	1.5 µM	0.103 µM
CC(=O)N1CCC(c2ccc(Nc3ncc4ccn(-c5cccc(NS(=O)(=O)C6CC6)c5)c4n3)cc2)CC1	10 µM	0.14 µM
CNCCNC(=O)Cc1ccc(Nc2ncc3ccn(-c4ccc(F)c(NS(=O)(=O)C(C)(C)C)c4)c3n2)cc1	0.193 µM	0.359 µM
CN1CCN(c2ccc(Nc3ncc4ccn(-c5ccccc5NS(=O)(=O)C(C)(C)C)c4n3)cc2)CC1	10 µM	2.4 µM
CN1CCN(c2ccc(Nc3ncc4ccn(-c5ccc6c(c5)CCN6S(=O)(=O)C(C)(C)C)c4n3)cc2)CC1 [drawing 398]	10 µM	0.0006 µM
O=S(=O)(Nc1cc(-n2ccc3cnc(Nc4ccc(N5CCNCC5)cc4)nc32)ccc1F)C1CC1	1.04 µM	0.0143 µM
CC(C)S(=O)(=O)N1CCN(c2ccc(Nc3ncc4ccn(-c5cccc(NS(=O)(=O)C(C)(C)C)c5)c4n3)cc2)CC1	8.3 µM	0.12 µM
CNCCOc1ccc(Nc2ncc3ccn(-c4cccc(NS(=O)(=O)C(C)(C)C)c4)c3n2)cc1F [drawing 467]	1.3 µM	0.079 µM
CN1CCN(c2ccc(Nc3ncc4ccn(-c5cccc(N(C)S(=O)(=O)C(C)(C)C)c5)c4n3)cc2)CC1	1.1 µM	0.009 µM
CN1CCC(Nc2nc(Nc3ccc(Cl)c(NS(=O)(=O)C(C)(C)C)c3)c3sccc3n2)CC1	0.9 µM	10 µM
CC(C)(C)S(=O)(=O)Nc1cccc(Nc2nc(NC3CCNCC3)nc3sccc23)c1 [drawing 406]	1.2 µM	10 µM
CN1CCN(c2ccc(Nc3ccc4ccn(-c5cccc(NS(=O)(=O)C(C)(C)C)c5)c4n3)cc2)CC1	10 µM	10 µM
CC(C)(C)S(=O)(=O)Nc1cccc(Nc2nc(NC3CCNCC3)nc3sccc23)c1 [drawing 270]	0.257 µM	10 µM
CN(C)C1CCN(c2ccc(Nc3ncc4ccn(-c5ccc(F)c(NS(=O)(=O)C(C)(C)C)c5)c4n3)cc2)CC1	0.258 µM	0.082 µM
CN1CCN(c2ccc(Nc3ncc4ccn(-c5ccc(F)c(NS(=O)(=O)C(C)(C)C)c5)c4n3)cc2F)CC1	0.149 µM	0.062 µM
CN1CCN2c3c(F)cc(Nc4ncc5ccn(-c6cccc(NS(=O)(=O)C(C)(C)C)c6)c5n4)cc3CC2C1 (stereo not drawn)	0.571 µM	0.014 µM
Cc1ccc(-n2ccc3cnc(Nc4ccc(N5CCN(C)CC5)cc4)nc32)cc1NS(=O)(=O)C(C)(C)C	0.68 µM	0.23 µM
CN1CCC(NC(=O)c2ccc(Nc3ncc4ccn(-c5cccc(NS(=O)(=O)C6CC6)c5)c4n3)cc2)CC1	1.9 µM	0.044 µM
CC(C)(C)S(=O)(=O)Nc1cccc(Nc2nc(NC3CCNCC3)nc3[nH]ccc23)c1	10 µM	10 µM
CN(C)C1CCN(c2ccc(Nc3ncc4ccn(-c5cccc(NS(=O)(=O)C(C)(C)C)c5)c4n3)cc2)CC1 [drawing 409]	0.229 µM	0.0065 µM

Compound	IC50 (BRD4-BD1)	IC50 (JAK2)
CN1CCN(c2ccc(Nc3ncc4ccn(-c5cccc(NC(=O)C(C)(C)C)c5)c4n3)cc2)CC1	10 µM	0.054 µM
COc1cc(Nc2ncc3scc(-c4cccc(NS(=O)(=O)C(C)(C)C)c4)c3n2)ccc1N1CCNCC1	0.356 µM	0.004 µM
CC(C)(C)S(=O)(=O)Nc1cc(-n2ccc3cnc(Nc4ccc(C5CCNCC5)cc4)nc32)ccc1F	0.475 µM	1.6 µM
CN(c1cccc(Nc2nc(NC3CCNCC3)nc3sccc23)c1)S(=O)(=O)C(C)(C)C	0.87 µM	10 µM
Cc1cnc(Nc2ccc(N3CCN(C)CC3)cc2)nc1Nc1cccc(NS(=O)(=O)C(C)(C)C)c1 [drawing 391]	0.141 µM	0.006 µM
O=S(=O)(Nc1cccc(-n2ccc3cnc(Nc4ccc(N5CCNCC5)cc4)nc32)c1)C1CC1 [drawing 307]	1.35 µM	0.005 µM
CN1CCC(Nc2ncc3ccn(-c4cccc(NS(=O)(=O)C(C)(C)C)c4)c3n2)CC1	0.284 µM	1000 µM
CN1CCC(NC(=O)c2ccc(Nc3ncc4ccn(-c5ccc(F)c(NS(=O)(=O)C6CC6)c5)c4n3)cc2)CC1	1.13 µM	0.152 µM
CNCC1CCN(c2ccc(Nc3ncc4ccn(-c5cccc(NS(=O)(=O)C(C)(C)C)c5)c4n3)cc2F)CC1	0.22 µM	0.007 µM
CN1CCN(c2ccc(Nc3ncc4scc(-c5cccc(NS(=O)(=O)C(C)(C)C)c5)c4n3)cc2F)CC1	0.393 µM	0.018 µM
CN(C)C(=O)C1CCN(c2ccc(Nc3ncc4ccn(-c5ccc(F)c(NS(=O)(=O)C(C)(C)C)c5)c4n3)cc2F)CC1	0.491 µM	0.129 µM
CN1CCN(C(=O)Cc2ccc(Nc3ncc4ccn(-c5cccc(NS(=O)(=O)C(C)(C)C)c5)c4n3)cc2)CC1	0.916 µM	0.176 µM
CC(C)(C)S(=O)(=O)Nc1cc(-n2ccc3cnc(Nc4ccc(N5CCN(S(C)(=O)=O)CC5)c(F)c4)nc32)ccc1F	1.4 µM	0.4 µM
CN(C)C1CCN(Cc2ccc(Nc3ncc4ccn(-c5ccc(F)c(NS(=O)(=O)C(C)(C)C)c5)c4n3)cc2F)CC1	0.105 µM	0.265 µM
CC(C)(C)S(=O)(=O)Nc1cccc(Nc2nc(NC3CCN(c4ccccc4)CC3)nc3sccc23)c1	10 µM	10 µM
CN(C)C1CCN(c2ccc(Nc3ncc4scc(-c5cccc(NS(=O)(=O)C(C)(C)C)c5)c4n3)cc2F)CC1	0.297 µM	0.004 µM
Cc1cnc(Nc2ccc(N3CCN(C)CC3)cc2)nc1Nc1cccc(NS(=O)(=O)C(C)(C)C)c1 [drawing 384]	0.138 µM	0.01 µM
CN1CCN(c2ccc(Nc3ncc4ccn(-c5ccc(F)c(NS(=O)(=O)C6CC6)c5)c4n3)cc2)CC1	1.49 µM	0.0153 µM
CN1CCN(c2ccc(Nc3ncc4cccc(-c5cccc(NS(=O)(=O)C(C)(C)C)c5)c4n3)cc2)CC1	3.8 µM	0.01 µM
CC(C)(C)S(=O)(=O)Nc1cccc(-n2ccc3cnc(Nc4ccc(NCCN)cc4)nc32)c1	0.682 µM	0.02 µM
CN1CCN(c2ccc(Nc3nc(Nc4cccc(NS(=O)(=O)C(C)(C)C)c4)c4ncsc4n3)cc2)CC1	1.54 µM	10 µM
CN(C)C1CCN(c2ccc(Nc3ncc4ccn(-c5ccc(F)c(NS(=O)(=O)C(C)(C)C)c5)c4n3)cc2F)CC1 [drawing 397]	0.063 µM	0.027 µM
COc1cc(N2CCN(C)CC2)ccc1Nc1ncc2ccn(-c3cccc(NS(=O)(=O)C(C)(C)C)c3)c2n1	1.6 µM	2.8 µM
Cc1cnc(Nc2ccc(N3CCN(C)CC3)cc2)nc1Nc1cccc(NS(=O)(=O)C(C)(C)C)c1 [drawing 321]	0.166 µM	0.013 µM
